Data published in patent publication US12570659B2, “Bicyclic heteroaryl compounds useful as IRAK4 inhibitors” (BRISTOL-MYERS SQUIBB COMPANY, priority 2019, dated 2026).

Assays:
JAK3 kinase = JAK3 kinase (Homo sapiens (Human), UniProt P52333); experiment: JAK3 Homogeneous Time Resolved Fluorescence (HTRF) Assay; type: binding; settings: for IC50: competition binding with fluorescein-labeled ATP competitive probe; for Ratio of JAK3 IC50 to IRAK4 IC50: selectivity for IRAK4 over JAK3
Experimental: JAK3 Homogeneous Time Resolved Fluorescence (HTRF) Assay
A time resolved FRET-based competition binding assay was used to assess test article binding to JAK3 kinase. His-tagged or GST-tagged kinase at a concentration of 1 nM was incubated with 0.2 nM Tb-labeled detection antibody (anti-His or anti-GST), test compound, and fluorescein-labeled ATP competitive probe at a concentration corresponding to the probe's equilibrium dissociation constant for one hour. Fluorescence at 495 nm and 520 nm was measured using an EnVision microplate reader to quantify FRET between Tb-labeled detection antibody and fluorescein-labeled probe. Background subtracted FRET ratios were normalized to the maximum signal obtained in the absence of test compound. These values were converted to a percent inhibition. Percent inhibition was determined for test compounds at 11 concentrations. The IC50, defined as the concentration of the competing test compound needed to reduce specific binding of the probe by 50%, was calculated using the 4 parameter logistic equation to fit the data.

IRAK4 = IRAK4 (Homo sapiens (Human), UniProt Q9NWZ3); experiment: IRAK4 Inhibition Assay; type: biochemical; settings: ATP 500 μM; IRAK4 0.6 nM; 60 min room temperature
Sequence of IRAK4 (Q9NWZ3 whole entry, species assumed): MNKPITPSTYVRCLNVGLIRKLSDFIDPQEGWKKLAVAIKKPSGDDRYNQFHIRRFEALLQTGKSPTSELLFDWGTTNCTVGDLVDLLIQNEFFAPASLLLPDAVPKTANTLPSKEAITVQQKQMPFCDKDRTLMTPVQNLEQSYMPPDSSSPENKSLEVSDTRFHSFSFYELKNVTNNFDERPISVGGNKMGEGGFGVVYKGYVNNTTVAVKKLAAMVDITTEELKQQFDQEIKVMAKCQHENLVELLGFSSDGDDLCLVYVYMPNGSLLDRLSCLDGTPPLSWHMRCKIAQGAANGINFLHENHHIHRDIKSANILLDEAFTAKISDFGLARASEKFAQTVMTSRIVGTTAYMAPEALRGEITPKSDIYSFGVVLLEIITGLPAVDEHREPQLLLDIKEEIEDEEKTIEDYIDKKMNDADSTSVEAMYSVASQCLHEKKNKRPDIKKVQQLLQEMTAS
Experimental: IRAK4 Inhibition Assay The assays were performed in U-bottom 384-well plates. […] The reaction was initiated by the combination of IRAK4 with substrates and test compounds. The reaction mixture was incubated at room temperature for 60 min. and terminated by adding 45 μL of 35 mM EDTA to each sample. The reaction mixture was analyzed on the Caliper LABCHIP® 3000 (Caliper, Hopkinton, MA) by electrophoretic separation of the fluorescent substrate and phosphorylated product. Inhibition data were calculated by comparison to no enzyme control reactions for 100% inhibition and vehicle-only reactions for 0% inhibition.

Sequence of JAK3 kinase (P52333 whole entry): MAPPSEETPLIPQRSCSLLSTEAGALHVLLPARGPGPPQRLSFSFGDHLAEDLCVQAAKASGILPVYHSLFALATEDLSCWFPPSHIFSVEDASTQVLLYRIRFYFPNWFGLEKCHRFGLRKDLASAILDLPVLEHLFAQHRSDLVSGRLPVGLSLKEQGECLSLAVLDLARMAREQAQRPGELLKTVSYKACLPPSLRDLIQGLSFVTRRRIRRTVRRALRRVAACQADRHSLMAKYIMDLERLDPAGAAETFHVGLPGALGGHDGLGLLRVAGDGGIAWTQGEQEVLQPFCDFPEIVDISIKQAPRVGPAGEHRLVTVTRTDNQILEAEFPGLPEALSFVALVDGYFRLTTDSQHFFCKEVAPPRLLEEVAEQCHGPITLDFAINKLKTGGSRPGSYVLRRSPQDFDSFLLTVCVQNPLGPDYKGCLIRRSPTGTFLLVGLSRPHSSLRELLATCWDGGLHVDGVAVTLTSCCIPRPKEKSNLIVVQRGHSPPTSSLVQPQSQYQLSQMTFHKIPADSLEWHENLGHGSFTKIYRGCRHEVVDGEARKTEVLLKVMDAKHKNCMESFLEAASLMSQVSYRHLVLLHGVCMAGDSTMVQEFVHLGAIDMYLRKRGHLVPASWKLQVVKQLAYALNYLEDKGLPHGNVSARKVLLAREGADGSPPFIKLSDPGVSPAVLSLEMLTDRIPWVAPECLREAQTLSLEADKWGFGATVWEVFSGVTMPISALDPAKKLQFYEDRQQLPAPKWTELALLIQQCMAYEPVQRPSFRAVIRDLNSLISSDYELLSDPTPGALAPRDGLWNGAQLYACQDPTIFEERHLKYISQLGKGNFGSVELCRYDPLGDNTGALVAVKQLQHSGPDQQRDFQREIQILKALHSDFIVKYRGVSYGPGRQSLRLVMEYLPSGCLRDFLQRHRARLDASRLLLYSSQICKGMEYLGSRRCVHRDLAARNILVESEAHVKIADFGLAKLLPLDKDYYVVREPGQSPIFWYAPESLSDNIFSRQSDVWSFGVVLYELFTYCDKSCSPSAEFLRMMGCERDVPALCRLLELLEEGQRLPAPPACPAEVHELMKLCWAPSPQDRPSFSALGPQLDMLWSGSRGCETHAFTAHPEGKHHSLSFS

Row | Structure (SMILES) | IC50 (JAK3 kinase) | Ratio of JAK3 IC50 to IRAK4 IC50 (JAK3 kinase) | IC50 (IRAK4)
1 | CC(C)(O)[C@H](F)CNC(=O)c1cnn2cc(-c3cccnc3F)cc2c1NC1CCOCC1 [Example 8, (R)—N-(2-fluoro-3-hydroxy-3-methylbutyl)-6-(2-fluoropyridin-3-yl)-4-((tetrahydro-2H-pyran-4-yl)amino)pyrrolo[1,2-b]pyridazine-3-carboxamide] | > 50000 nM | >2000 | 25 nM
2 | Cc1ncccc1-c1cc2ncc(C(=O)NC[C@@H](F)C(C)(C)O)c(NC(C)C)n2n1 [Example 132, (R)—N-(2-fluoro-3-hydroxy-3-methylbutyl)-7-(isopropylamino)-2-(2-methylpyridin-3-yl)pyrazolo[1,5-a]pyrimidine-6-carboxamide] | > 50000 nM | >217 | 230 nM
3 | CC(C)(O)[C@H](F)CNC(=O)c1cnn2cc(-c3cccnc3)cc2c1NC1CCCC1 [Example 30, (R)-4-(cyclopentylamino)-N-(2-fluoro-3-hydroxy-3-methylbutyl)-6-(pyridin-3-yl)pyrrolo[1,2-b]pyridazine-3-carboxamide] | > 10000 nM | >182 | 55 nM
4 | CC(C)(C)CNc1c(C(=O)NC[C@@H](F)C(C)(C)O)cnc2cc(-c3cccnc3)nn12 [Example 155, (R)—N-(2-fluoro-3-hydroxy-3-methylbutyl)-7-(neopentylamino)-2-(pyridin-3-yl)pyrazolo[1,5-a]pyrimidine-6-carboxamide] | > 50000 nM | >556 | 90 nM
5 | CC(C)Nc1c(C(=O)NC[C@@H](F)C(C)(C)O)cnn2cc(-c3cncnc3)cc12 [Example 4, (R)—N-(2-fluoro-3-hydroxy-3-methylbutyl)-4-(isopropylamino)-6-(pyrimidin-5-yl)pyrrolo[1,2-b]pyridazine-3-carboxamide] | > 50000 nM | >2632 | 19 nM
6 | Nc1c(C(=O)NCCN2CCOCC2)cnn2cc(-c3ccncc3F)cc12 [Example 79, 4-amino-6-(3-fluoropyridin-4-yl)-N-(2-morpholinoethyl)pyrrolo[1,2-b]pyridazine-3-carboxamide] | > 50000 nM | >455 | 110 nM
7 | CC(C)(O)[C@H](F)CNC(=O)c1cnc2cc(-c3cccnc3)nn2c1N[C@H]1CCC[C@H]1O [Example 139, N—((R)-2-fluoro-3-hydroxy-3-methylbutyl)-7-(((1S,2R)-2-hydroxycyclopentyl)amino)-2-(pyridin-3-yl)pyrazolo[1,5-a] pyrimidine-6-carboxamide] | > 50000 nM | >200 | 250 nM
8 | CC(=O)N[C@H]1CC[C@H](NC(=O)c2cnn3cc(-c4ccc(F)cn4)cc3c2NC(C)C)CC1 [Example 82, N-((1r,4r)-4-acetamidocyclohexyl)-6-(5-fluoropyridin-2-yl)-4-(isopropylamino)pyrrolo[1,2-b]pyridazine-3-carboxamide] | > 50000 nM | >1471 | 34 nM
9 | COC(=O)c1cncc(-c2cc3ncc(C(=O)NC[C@@H](F)C(C)(C)O)c(NC(C)C)n3n2)c1 [Example 149, methyl (R)-5-(6-((2-fluoro-3-hydroxy-3-methylbutyl)carbamoyl)-7-(isopropylamino)pyrazolo[1,5-a]pyrimidin-2-yl)nicotinate] | > 50000 nM | >238 | 210 nM
10 | CC(C)Nc1c(C(=O)NC[C@@H](F)C(C)(C)O)cnc2cc(C3CC3)nn12 [Example 147, (R)-2-cyclopropyl-N-(2-fluoro-3-hydroxy-3-methylbutyl)-7-(isopropylamino)pyrazolo[1,5-a]pyrimidine-6-carboxamide] | > 50000 nM | >119 | 420 nM
11 | COc1cc(-c2cc3c(NC4CCOCC4)c(C(=O)NC[C@@H](F)C(C)(C)O)cnn3c2)ccn1 [Example 11, (R)—N-(2-fluoro-3-hydroxy-3-methylbutyl)-6-(2-methoxypyridin-4-yl)-4-((tetrahydro-2H-pyran-4-yl)amino)pyrrolo[1,2-b]pyridazine-3-carboxamide] | > 50000 nM | >581 | 86 nM
12 | Cc1cc(-c2cc3c(NCCC(C)(C)O)c(C(=O)NC[C@@H](F)C(C)(C)O)cnn3c2)ccn1 [Example 23, (R)—N-(2-fluoro-3-hydroxy-3-methylbutyl)-4-((3-hydroxy-3-methylbutyl)amino)-6-(2-methylpyridin-4-yl)pyrrolo[1,2-b]pyridazine-3-carboxamide] | > 50000 nM | >455 | 110 nM
13 | CC(C)(O)[C@H](F)CNC(=O)c1cnn2cc(-c3ccncc3)cc2c1NC1CCOCC1 [Example 9, (R)—N-(2-fluoro-3-hydroxy-3-methylbutyl)-6-(pyridin-4-yl)-4-((tetrahydro-2H-pyran-4-yl)amino) pyrrolo[1,2-b] pyridazine-3-carboxamide] | > 50000 nM | >2941 | 17 nM
14 | CC(C)(O)[C@H](F)CNC(=O)c1cnn2cc(-c3ccccc3)cc2c1NC1CC1 [Example 31, (R)-4-(cyclopropylamino)-N-(2-fluoro-3-hydroxy-3-methylbutyl)-6-phenylpyrrolo[1,2-b] pyridazine-3-carboxamide] | > 2000 nM | >61 | 33 nM
15 | CC(C)Nc1c(C(=O)NC[C@@H](F)C(C)(C)O)cnc2cc(-c3nccs3)nn12 [Example 158, (R)—N-(2-fluoro-3-hydroxy-3-methylbutyl)-7-(isopropylamino)-2-(thiazol-2-yl)pyrazolo[1,5-a]pyrimidine-6-carboxamide] | – | – | 20 nM
16 | CC(C)(O)[C@H](F)CNC(=O)c1cnn2cc(-c3ccccc3)cc2c1NC1CCCC1 [Example 29, (R)-4-(cyclopentylamino)-N-(2-fluoro-3-hydroxy-3-methylbutyl)-6-phenylpyrrolo[1,2-b] pyridazine-3-carboxamide] | – | – | 180 nM
17 | CNC(=O)c1cnc2cc(-c3ccccc3)nn2c1N[C@H](CO)Cc1ccccc1 [Example 116, (S)-7-((1-hydroxy-3-phenylpropan-2-yl)amino)-N-methyl-2-phenylpyrazolo[1,5-a]pyrimidine-6-carboxamide] | – | – | 1620 nM
18 | CC(C)Nc1c(C(=O)NCCN2CCOCC2)cnn2cc(-c3cn[nH]c3)nc12 [Example 110, 8-(isopropylamino)-N-(2-morpholinoethyl)-2-(1H-pyrazol-4-yl) imidazo[1,2-b]pyridazine-7-carboxamide] | > 50000 nM | >333 | 150 nM
19 | CNC(=O)[C@H]1CC[C@H](NC(=O)c2cnn3cc(-c4ccc(C(N)=O)nc4)cc3c2NC(C)C)CC1 [Example 95, 6-(6-carbamoylpyridin-3-yl)-4-(isopropylamino)-N-((1r,4r)-4-(methylcarbamoyl)cyclohexyl)pyrrolo[1,2-b]pyridazine-3-carboxamide] | – | – | 35 nM
20 | CNC(=O)c1cnc2cc(-c3ccc4ncsc4c3)nn2c1NC(C)C [Example 121, 2-(benzo[d]thiazol-6-yl)-7-(isopropylamino)-N-methylpyrazolo[1,5-a]pyrimidine-6-carboxamide] | – | – | 590 nM
21 | CNC(=O)c1cnc2cc(-c3ccccc3)nn2c1NC1CCCCC1 [Example 117, 7-(cyclohexylamino)-N-methyl-2-phenylpyrazolo[1,5-a]pyrimidine-6-carboxamide] | – | – | 5570 nM
22 | CNC(=O)c1cnc2cc(-c3ccc(C#N)cc3)nn2c1NC(C)C [Example 118, 2-(4-cyanophenyl)-7-(isopropylamino)-N-methylpyrazolo[1,5-a] pyrimidine-6-carboxamide] | – | – | 240 nM
23 | CNC(=O)c1cnc2cc(-c3ccnc(N4CCOCC4)c3)nn2c1NC(C)C [Example 119, 7-(isopropylamino)-N-methyl-2-(2-morpholinopyridin-4-yl)pyrazolo[1,5-a]pyrimidine-6-carboxamide] | – | – | 2930 nM
24 | CNC(=O)c1cnc2cc(-c3ccncc3)nn2c1NC(C)C [Example 120, 7-(isopropylamino)-N-methyl-2-(pyridin-4-yl)pyrazolo[1,5-a]pyrimidine-6-carboxamide] | – | – | 410 nM
25 | CC(C)Nc1c(C(=O)NC[C@@H](F)C(C)(C)O)cnn2cc(-c3nccs3)cc12 [Example 17, (R)—N-(2-fluoro-3-hydroxy-3-methylbutyl)-4-(isopropylamino)-6-(thiazol-2-yl)pyrrolo[1,2-b]pyridazine-3-carboxamide] | – | – | 6.3 nM
26 | CNC(=O)[C@H]1CC[C@H](NC(=O)c2cnn3cc(-c4ccc(C#N)nc4)cc3c2NC(C)C)CC1 [Example 94, 6-(6-cyanopyridin-3-yl)-4-(isopropylamino)-N-((1r,4r)-4-(methylcarbamoyl)cyclohexyl) pyrrolo[1,2-b]pyridazine-3-carboxamide] | – | – | 14 nM
